One data set relates to NCI-H929 cells. The data set is described as follows: Cell viability assay (NCI-H929 cells), CCK-8. It counts as cell-based. The settings on record: 5% FBS. On the procedure: NCI-H929 cells were obtained from American Type Culture Collection (ATCC). Cells were maintained in the recommended culture medium (RPMI 1640) with 10% FBS and 0.05 mM BME at 37° C. and an atmosphere of 5% CO2.
The effect of Compounds on cell viability was determined using Cell Counting Kit-8 (CCK-8) assay according to the manufacturer's instructions. 95 μL of NCI-H929 cell suspension (20000 cells/well) in culture medium were seeded into 96-well plates and cultured 4 hrs. Each tested compound was serially diluted in DMSO, then 5 μL of the compound or DMSO was diluted in 95 μL medium once more. At last, 5 μL of the compound dilution was added to the corresponding well of the cell plate. After the addition of the tested compound, the cells were incubated at 37° C. in an atmosphere of 5% CO2 for 24 hrs. At the end, 10 μL of CCK-8 solution was added to each well of the plate and incubated for 1-4 hours. The plates were read at 450 nm on the microplate reader (BioTek Synergy 1MF). The readings were normalized to the vehicle cells, and the IC50 was calculated by nonlinear regression analysis using GraphPad Prism 6 software. Cell Viability Assay (OPM-2 cells)

In the next data set the test system is OPM-2 cells. The data set is described as follows: Cell viability assay (OPM-2 cells), CCK-8. Type of data set: cell-based. The note with it: 5% FBS. How it is done: OPM-2 cells were obtained from Deutsche Sammlung von Mikroorganismen and Zellkulturen GmbH (DSMZ). Cells were maintained in the recommended culture medium with 10% FBS at 37° C. and an atmosphere of 5% CO2.
The effect of representative Compounds of the Disclosure on cell viability was determined using Cell Counting Kit-8 (CCK-8) assay (Shanghai Life iLab Bio Technology) according to the manufacturer's instructions. Each tested compound was serially diluted in culture medium, 100 μL of the compound dilution was added into 96-well plates. 100 μL of an OPM-2 cell suspension (20000 cells/well) in culture medium were seeded into the corresponding well of the plate and the cells were incubated at 37° C. in an atmosphere of 5% CO2 for 24 hours. In the next day, 20 μL of CCK-8 solution was added to each well of the plate and incubated for 4 hours.
The plates were read at 450 nm on the microplate spectrophotometer (SpectraMax plus 384, Molecular devices). The readings were normalized to the vehicle cells, and the IC50 was calculated by nonlinear regression analysis using GraphPad Prism 6 software.

Data set [1] deals with T1, Mcl-1 protein (residues 171-323) (Homo sapiens, UniProt Q07820).
T1 construct: Tag-free Mcl-1 protein (residues 171-323) was used in the FP assay
The data set is described as follows: Inhibition of Mcl-1 by fluorescence polarization (FP) competitive binding assay with FAM-Bid tracer. The note with it: 2 nM FAM-Bid, 20 nM Mcl-1, 30 min. How it is done:
Inhibition of Mcl-1 by Fluorescence Polarization (FP) Assay.
The relative binding potency of representative Compounds of the Disclosure was determined by a fluorescence polarization (FP) assay (Long et al, BMC Biotechnology 13:45 (2013)). The method used a fluorescein labelled peptide (FAM-Bid) which binds to the Mcl-1 protein leading to an increased anisotropy measured in milli-polarization (mP) values using a plate reader. […] Tag-free Mcl-1 protein (residues 171-323) was used in the FP assay (Mady et al, Scientific Reports 8: 10210-10210 (2018); Yang et al, ACS Med. Chem. Lett. 3:308-312 (2012)).
A 10-points serial dilution of each compound was prepared in DMSO and 5 μL solution was transferred into flat bottomed, 96-well back plate (final DMSO concentration 5%). 120 μL of Buffer (PBS, 0.01% BGG (Sigma Cat. #SRE0011), 0.01% Triton X-100), containing the Fluorescein labelled peptide (Final concentration 2 nM) and Mcl-1 protein (final concentration 20 nM) was then added. Assay plates were incubated 30 mins at room temperature with gentle shaking before FP was measured on a Biotek Synergy 1MF reader (Ex. 485 nm, Em. 528 nm, Cut off 510 nm) and mP calculated. The binding of increasing doses of test compounds was expressed as a percentage reduction in mP compared to a window established between 5% DMSO only and 100% inhibition controls (no Mcl-1 protein). 10-points dose response curves were plotted with GraphPad software using Sigmoidal Dose-Response Model and the IC50 values were determined by nonlinear regression fitting of the competition curves. Cell Viability Assay (NCI-H929 cells)

Data set [2] is described as follows: Pharmacokinetic studies in mice (IV and PO). The settings on record: for MRT last: read-out: MRT0-last. Type of data set: in vivo. On the procedure: Administration: Mice in the IV group was dosed at 2 mg/kg (20% PEG 400+10% Cremophor EL+70% PBS 7.4) via tail vein injection (N=9). Mice in the PO group was dosed at 10 mg/kg (20% PEG 400+10% Cremophor EL+70% PBS 7.4) via oral gavage (N=9). All the mice were fasted overnight before dosing and had free access to food 4 hr post dosing.
Sampling: The animal was restrained manually at the designated time points (0.083, 0.25, 0.5, 1, 2, 4, 6, 8 and 24 hr), approximately 110 μL of blood sample was collected via retro-orbital puncture or cardiac puncture for terminal bleeding under the anesthesia with Isoflurane inhalation into K2EDTA tubes. The blood samples were maintained in wet ice first and centrifuged to obtain plasma (2000 g, 4° C., 5 min) within 15 minutes post sampling. All the plasma samples were stored at approximately −70° C. until analysis.

We go through 17 compounds from patent US11498928B2, “Macrocyclic spiroethers as Mcl-1 inhibitors” (ASCENTAGE PHARMA (SUZHOU) CO., LTD., priority 2019, dated 2022).

Molecules are shown by their SMILES. Where two headings read alike, the source gives them in different places. Where only a bound is given, the exact number is not on record here.

T1 sequence (Q07820 171-323): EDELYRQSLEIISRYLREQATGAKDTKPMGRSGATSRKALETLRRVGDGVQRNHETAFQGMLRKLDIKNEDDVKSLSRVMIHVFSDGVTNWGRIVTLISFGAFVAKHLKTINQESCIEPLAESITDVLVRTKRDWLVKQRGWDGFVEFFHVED

Regarding `CO[C@@H]1C2=CC(C2)CC(C)S(=O)(=O)NC(=O)c2ccc3c(c2)N(C[C@@H]2CC[C@H]21)C[C@@]1(CCCc2cc(Cl)ccc21)CO3` (mixture of isomers) [7 (mixture)], the IC50 with NCI-H929 cells (Homo sapiens, NCI-H929, 24 h) worked out at 2300 nM; with OPM-2 cells (Homo sapiens, OPM-2, 24 h) it was 5580 nM; in data set [1], 5.1 nM.
On to `CO[C@H]1C2=CC(C2)CC(C)S(=O)(=O)NC(=O)c2ccc3c(c2)N(C[C@@H]2CC[C@H]21)C[C@@]1(CCCc2cc(Cl)ccc21)CO3` (mixture of isomers) [11 (mixture)], for which the 50% inhibitory concentration (IC50) with NCI-H929 cells (Homo sapiens, NCI-H929, 24 h) turned out to be 270 nM; in the data set on OPM-2 cells (Homo sapiens, OPM-2, 24 h), 967 nM; in data set [1], 5.5 nM.
With `CO[C@@H]1C2=CC(C2)CC(C)S(=O)(=O)NC(=O)c2ccc3c(c2)N(C[C@@H]2CC[C@H]21)C[C@@]1(CCCc2cc(Cl)ccc21)CO3` (single isomer, unassigned) [7 (Isomer 1)], the values for the IC50 (in the data set on NCI-H929 cells (24 h); in the data set on OPM-2 cells (24 h); in data set [1]) were 600 nM, 1120 nM and 4.2 nM, respectively.
Regarding `CO[C@@H]1C2=CC(C2)CC(C)S(=O)(=O)NC(=O)c2ccc3c(c2)N(C[C@@H]2CC[C@H]21)C[C@@]1(CCCc2cc(Cl)ccc21)CO3` (single isomer, unassigned) [7 (Isomer 2)], the figures for the IC50 (in the data set on NCI-H929 cells (24 h); in the data set on OPM-2 cells (24 h); in data set [1]) were 1900 nM, 2960 nM and 4.2 nM, respectively.
For `CO[C@H]1C2=CC(C2)CC(C)S(=O)(=O)NC(=O)c2ccc3c(c2)N(C[C@@H]2CC[C@H]21)C[C@@]1(CCCc2cc(Cl)ccc21)CO3` (single isomer, unassigned) [11 (Isomer 1)], the IC50 in the data set with NCI-H929 cells (24 h) came to 86 nM; in the data set on OPM-2 cells (24 h) it was 87 nM; in data set [1] it was 6.5 nM.
In the same order, the values of `CO[C@H]1C2=CC(C2)CC(C)S(=O)(=O)NC(=O)c2ccc3c(c2)N(C[C@@H]2CC[C@H]21)C[C@@]1(CCCc2cc(Cl)ccc21)CO3` (single isomer, unassigned) [11 (Isomer 2)] are 2240 nM, 3860 nM and 6 nM.
For the compound `CO[C@H]1C2=CC(C2)[C@@H](C)[C@H](C)S(=O)(=O)NC(=O)c2ccc3c(c2)N(C[C@@H]2CC[C@H]21)C[C@@]1(CCCc2cc(Cl)ccc21)CO3` (single isomer, unassigned) [12 (Isomer 1)], the IC50 in the data set with NCI-H929 cells (24 h) is more than 10000 nM; in the data set on OPM-2 cells (Homo sapiens, OPM-2, 24 h), 17200 nM; in data set [1], 4.8 nM.
With `CO[C@H]1C2=CC(C2)[C@@H](C)[C@H](C)S(=O)(=O)NC(=O)c2ccc3c(c2)N(C[C@@H]2CC[C@H]21)C[C@@]1(CCCc2cc(Cl)ccc21)CO3` (single isomer, unassigned) [12 (Isomer 2)], the figures for the IC50 (in the data set with NCI-H929 cells (24 h); in the data set on OPM-2 cells (24 h); in data set [1]) were 4600 nM, 12300 nM and 15 nM, respectively.
As to `CO[C@H]1C2=C[C@@H](C2)[C@H](C)[C@@H](C)S(=O)(=O)NC(=O)c2ccc3c(c2)N(C[C@@H]2CC[C@H]21)C[C@@]1(CCCc2c1ccc(Cl)c2F)CS3` (single isomer, unassigned) [22 (isomer 1)], the IC50 in the data set with NCI-H929 cells (Homo sapiens, NCI-H929, 24 h) turned out to be 700 nM; in the data set on OPM-2 cells (Homo sapiens, OPM-2, 24 h) it was 567 nM; in data set [1], 13 nM.
The corresponding values for `CO[C@H]1C2=C[C@@H](C2)[C@H](C)CS(=O)(=O)NC(=O)c2ccc3c(c2)N(C[C@@H]2CC[C@H]21)C[C@@]1(CCCc2c1ccc(Cl)c2F)CS3` (single isomer, unassigned) [24 (isomer 1)] are 660 nM, 670 nM and 6.4 nM.
In the same order, the values of `CO[C@H]1C2=C[C@H](C2)[C@H](C)CS(=O)(=O)NC(=O)c2ccc3c(c2)N(C[C@@H]2CC[C@H]21)C[C@@]1(CCCc2c1ccc(Cl)c2F)CS3` (single isomer, unassigned) [24 (isomer 2)] are 4300 nM, 3300 nM and 4.8 nM.
In the case of `CO[C@H]1C2=CC(C2)[C@H](C)N(C)S(=O)(=O)NC(=O)c2ccc3c(c2)N(C[C@@H]2CC[C@H]21)C[C@@]1(CCCc2cc(Cl)ccc21)CO3` (single isomer, unassigned) [26 (isomer 1)], the IC50 with NCI-H929 cells (24 h) stood at 160 nM; with OPM-2 cells (24 h) it was 412 nM; in data set [1] it was 14 nM.
As for `CO[C@H]1C2=CC(C2)[C@H](C)N(C)S(=O)(=O)NC(=O)c2ccc3c(c2)N(C[C@@H]2CC[C@H]21)C[C@@]1(CCCc2cc(Cl)ccc21)CO3` (single isomer, unassigned) [26 (isomer 2)], the concentration for half-maximal inhibition (IC50) came to 2260 nM with NCI-H929 cells (24 h), 2240 nM in the data set on OPM-2 cells (24 h) and 3.3 nM in data set [1].
The corresponding values for `CO[C@@H]1C2=CC(C2)[C@H](C)N(C)S(=O)(=O)NC(=O)c2ccc3c(c2)N(C[C@@H]2CC[C@H]21)C[C@@]1(CCCc2cc(Cl)ccc21)CO3` (single isomer, unassigned) [27 (isomer 1)] are 1600 nM, 1440 nM and 13 nM.
For the compound `CO[C@@H]1C2=CC(C2)[C@H](C)N(C)S(=O)(=O)NC(=O)c2ccc3c(c2)N(C[C@@H]2CC[C@H]21)C[C@@]1(CCCc2cc(Cl)ccc21)CO3` (single isomer, unassigned) [27 (isomer 2)], the IC50 in the data set with NCI-H929 cells (24 h) came out at 5000 nM; in the data set on OPM-2 cells (24 h), 3610 nM; in data set [1], 3.4 nM.
Take `CO[C@H]1/C=C/C[C@H](C)[C@@H](C)S(=O)(=O)NC(=O)c2ccc3c(c2)N(C[C@@H]2CC[C@H]21)C[C@@]1(CCCc2cc(Cl)ccc21)CO3` [AMG-176, reference compound]: the F in data set [2] (PO 10 mg/kg vs IV 2 mg/kg) came to 97.9%. For the same compound, in data set [2] (mouse, plasma, IV 2 mg/kg), the AUC(0-inf) amounted to 7450 ng·h/mL, the AUC(0-t) was 6800 ng·h/mL, the clearance is 4.5 mL/min/kg and the half-life was 432 min. Also, in data set [2] (mouse, plasma, IV 2 mg/kg), the MRT last stood at 6.3 h. Further, the Cmax in data set [2] (mouse, plasma, IV 2 mg/kg, read-out: C0/Cmax (C0)) came out at 1550 ng/mL. Further, the Vd in data set [2] (mouse, plasma, IV 2 mg/kg, read-out: Vss) worked out at 2.3 L/kg. For the same compound, in data set [2] (mouse, plasma, PO 10 mg/kg), the AUC(0-inf) worked out at 36500 ng·h/mL, the AUC(0-t) is 32700 ng·h/mL, the Tmax was determined as 1 h and the half-life was 444 min. Besides, the MRT last in data set [2] (mouse, plasma, PO 10 mg/kg) turned out to be 7.4 h. Besides, the Cmax in data set [2] (mouse, plasma, PO 10 mg/kg, read-out: C0/Cmax (Cmax)) was 2500 ng/mL. In addition, the Vd/F in data set [2] (mouse, plasma, PO 10 mg/kg, read-out: Vz/F) was 2.9 L/kg. Further, the IC50 in the data set with NCI-H929 cells (Homo sapiens, NCI-H929, 24 h) was 138 nM. Also, the IC50 with OPM-2 cells (Homo sapiens, OPM-2, 24 h) worked out at 335 nM.
Turning to `CO[C@H]1C2CC(CCS(=O)(=O)NC(=O)c3ccc4c(c3)N(C[C@@H]3CC[C@H]31)C[C@@]1(CCCc3cc(Cl)ccc31)CO4)C2` [compound 2], the IC50 in the data set with NCI-H929 cells (Homo sapiens, NCI-H929, 24 h) stood at 6.04 nM; in the data set on OPM-2 cells (Homo sapiens, OPM-2, 24 h) it was 10 nM.
